Test results: patent US10669283B2, “Compound and pharmacologically acceptable salt thereof” (MEIJI SEIKA PHARMA CO., LTD., priority 2016, dated 2020)
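Throughout, for PDE4 Inhibitory Activity (concentration for the inhibition rate of 50%): A below 100 nM B 100 to below 1000 nM C 1000 nM or more.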

The compounds below were run on PDE4 (assay: PDE4 inhibition, scintillation proximity assay (SPA)). Conditions: scintillation proximity assay (SPA); evaluated as classes A, B, C; read-out: PDE4 Inhibitory Activity (concentration for the inhibition rate of 50%).
Type: biochemical
Outline: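 Scintillation proximity read-out: [2,8-3H]-cAMP hydrolysis by PDE4 ran 120 min at room temperature in Tris-HCl pH 7.4 buffer with 8.3 mM MgCl2, 1.7 mM EGTA and 3 mg/mL BSA. Bead-bound product (YSi-SPA with ZnSO4, 15 min) counted; blank lacks enzyme, control has DMSO only.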
In the case of `C[C@H](O)COc1ccc(-c2nccs2)c2oc(N3CC4CC(C3)N4)nc12` [Example 260, (2S)-1-((2-(3,6-diazabicyclo[3.1.1]heptan-3-yl)-7-(thiazol-2-yl)benzo[d]oxazol-4-yl)oxy)propan-2-ol], the IC50 is reported as < 100 nM.
For `FC(F)(F)Oc1c(Cl)cc(-c2ncco2)c2oc(N3CC4CCC(C3)N4)nc12` [Example 9, 2-(3,8-Diazabicyclo[3.2.1]octan-3-yl)-5-chloro-7-(oxazol-2-yl)-4-(trifluoromethoxy)benzo[d]oxazole], the IC50 was < 100 nM.
With `CC(O)(c1ccc(-c2nccs2)c2oc(N3CC4CC(C3)N4)nc12)C(F)F` (centres unmarked) [Example 296, 2-(2-(3,6-Diazabicyclo[3.1.1]heptan-3-yl)-7-(thiazol-2-yl)benzo[d]oxazol-4-yl)-1,1-difluoropropan-2-ol] the IC50 was < 100 nM.
`O=C(O)COc1cc(-c2nccs2)c2oc(N3CC4CCC(C3)N4)nc2c1` [Example 74, 2-((2-(3,8-Diazabicyclo[3.2.1]octan-3-yl)-7-(thiazol-2-yl)benzo[d]oxazol-5-yl)oxy)acetic acid] was tested, and the IC50 was < 100 nM.
For `FC(F)(F)Oc1c(Cl)cc(-c2ccco2)c2oc(N3CC4CCC(C3)N4)nc12` [Example 6, 2-(3,8-Diazabicyclo[3.2.1]octan-3-yl)-5-chloro-7-(furan-2-yl)-4-(trifluoromethoxy)benzo[d]oxazole], the IC50 was < 100 nM.
`OC(c1cc(-c2nccs2)c2oc(N3CC4CCC(C3)N4)nc2c1OC(F)(F)F)C(F)F` (centres unmarked) [Example 275, 1-(2-(3,8-Diazabicyclo[3.2.1]octan-3-yl)-7-(thiazol-2-yl)-4-(trifluoromethoxy)benzo[d]oxazol-5-yl)-2,2-difluoroethan-1-ol] was tested, and the IC50 was < 100 nM.
`OC(O)(c1cc(-c2nccs2)c2oc(N3CC4CCCC(C3)N4)nc2c1)C(F)(F)F` [Example 156, 1-(2-(3,9-Diazabicyclo[3.3.1]nonan-3-yl)-7-(thiazol-2-yl)benzo[d]oxazol-5-yl)-2,2,2-trifluoroethane-1,1-diol] was tested, and the IC50 was < 100 nM.
With `CC(C)C(O)c1cc(-c2nccs2)c2oc(N3CC4CCC(C3)N4)nc2c1OC(F)(F)F` (centres unmarked) [Example 205, 1-(2-(3,8-Diazabicyclo[3.2.1]octan-3-yl)-7-(thiazol-2-yl)-4-(trifluoromethoxy)benzo[d]oxazol-5-yl)-2-methylpropan-1-ol] the IC50 was < 100 nM.
In the case of `OC1CCC(Oc2ccc(-c3nccs3)c3oc(N4CC5CC(C4)N5)nc23)CC1` (centres unmarked) [Example 305, 4-((2-(3,6-Diazabicyclo[3.1.1]heptan-3-yl)-7-(thiazol-2-yl)benzo[d]oxazol-4-yl)oxy)cyclohexan-1-ol], the IC50 is reported as < 100 nM.
`CC(O)c1cc(-c2nccs2)c2oc(N3CC4CCC(C3)N4)nc2c1C(F)(F)F` (centres unmarked) [Example 181, 1-(2-(3,8-Diazabicyclo[3.2.1]octan-3-yl)-7-(thiazol-2-yl)-4-(trifluoromethyl)benzo[d]oxazol-5-yl)ethan-1-ol] was tested, and the IC50 was < 100 nM.
`CC(=O)Nc1cc(-c2nccs2)c2oc(N3CC4CCCC(C3)N4)nc2c1` [Example 48, N-(2-(3,9-diazabicyclo[3.3.1]nonan-3-yl)-7-(thiazol-2-yl)benzo[d]oxazol-5-yl)acetamide] was tested, and the IC50 was < 100 nM.
With `CC(C)(O)c1cc(-c2nccs2)c2oc(N3CC4CCC(C3)N4)nc2c1C(F)(F)F` [Example 177, 2-(2-(3,8-Diazabicyclo[3.2.1]octan-3-yl)-7-(thiazol-2-yl)-4-(trifluoromethyl)benzo[d]oxazol-5-yl)propan-2-ol] the IC50 was < 100 nM.
`CC(C)(O)COC(c1ccc(-c2nccs2)c2oc(N3CC4CC(C3)N4)nc12)C(F)(F)F` (centres unmarked) [Example 255] was tested, and the IC50 was < 100 nM.
`N#CCOC(c1cc(-c2nccs2)c2oc(N3CC4CCC(C3)N4)nc2c1)C(F)(F)F` (centres unmarked) [Example 153, 2-(1-(2-(3,8-Diazabicyclo[3.2.1]octan-3-yl)-7-(thiazol-2-yl)benzo[d]oxazol-5-yl)-2,2,2-trifluoroethoxy)acetonitrile] was tested, and the IC50 was < 100 nM.
With `O=C(O)c1ccc(-c2nccs2)c2oc(N3CC4CCC(C3)N4)nc12` [Example 238, 2-(3,8-Diazabicyclo[3.2.1]octan-3-yl)-7-(thiazol-2-yl) benzo[d]oxazole-4-carboxylic acid] the IC50 was < 100 nM.
`CCOC(=O)c1cc(-n2cccn2)c2oc(N3CC4COCC(C3)N4)nc2c1` [Example 92, Ethyl 2-(3-oxa-7,9-diazabicyclo[3.3.1]nonan-7-yl)-7-(1H-pyrazol-1-yl)benzo[d]oxazole-5-carboxylate] was tested, and the IC50 was > 1000 nM.
`OCCOC(c1cc(-c2nccs2)c2oc(N3CC4CCC(C3)N4)nc2c1)C(F)(F)F` (centres unmarked) [Example 149, 2-(1-(2-(3,8-Diazabicyclo[3.2.1]octan-3-yl)-7-(thiazol-2-yl)benzo[d]oxazol-5-yl)-2,2,2-trifluoroethoxy)ethan-1-ol] was tested, and the IC50 was < 100 nM.
With `FC(F)Oc1ccc(-c2nccs2)c2oc(N3CC4CCC(C3)N4)nc12` [Example 263, 2-(3,8-Diazabicyclo[3.2.1]octan-3-yl)-4-(difluoromethoxy)-7-(thiazol-2-yl)benzo[d]oxazole] the IC50 was < 100 nM.
For `CC(=O)c1ccc(-c2nccs2)c2oc(N3CC4CC(C3)N4)nc12` [Example 244, 1-(2-(3,6-Diazabicyclo[3.1.1]heptan-3-yl)-7-(thiazol-2-yl)benzo[d]oxazol-4-yl)ethan-1-one], the IC50 was < 100 nM.
For `OCC(F)(F)OC(c1ccc(-c2nccs2)c2oc(N3CC4CC(C3)N4)nc12)C(F)(F)F` (centres unmarked) [Example 258, 2-(1-(2-(3,6-Diazabicyclo[3.1.1]heptan-3-yl)-7-(thiazol-2-yl)benzo[d]oxazol-4-yl)-2,2,2-trifluoroethoxy)-2,2-difluoroethan-1-ol], the IC50 was < 100 nM.
In the case of `OC(c1ccc(-c2nccs2)c2oc(N3CC4CCC(C3)N4)nc12)C(F)(F)F` (centres unmarked) [Example 119, 1-(2-(3,8-Diazabicyclo[3.2.1]octan-3-yl)-7-(thiazol-2-yl)benzo[d]oxazol-4-yl)-2,2,2-trifluoroethan-1-ol], the IC50 is reported as < 100 nM.

Same assay, conditions: scintillation proximity assay; class symbols; read-out: PDE4 Inhibitory Activity
In the case of `CC(C)C(O)C(F)(F)Oc1ccc(-c2nccs2)c2oc(N3CC4CC(C3)N4)nc12` (centres unmarked) [Example 362, 1-((2-(3,6-diazabicyclo [3.1.1]heptan-3-yl)-7-(thiazol-2-yl)benzo[d]oxazol-4-yl)oxy)-1,1-difluoro-3-methylbutan-2-ol], the IC50 is reported as < 100 nM.
With `O=C(NCc1ccccc1)c1ccc(-c2nccs2)c2oc(N3CC4CC(C3)N4)nc12` [Example 361, N-benzyl-2-(3,6-diazabicyclo [3.1.1]heptan-3-yl)-7-(thiazol-2-yl) benzo oxazole-4-carboxamide] the IC50 was < 100 nM.
